Results on 4 compounds are retold here after article PMC7144195, “Synthesis, antitumor activity, and molecular docking study of 2-cyclopentyloxyanisole derivatives: mechanistic study of enzyme inhibition” (Journal of Enzyme Inhibition and Medicinal Chemistry, 2020).

Series [1] has as its system HePG2, HCT-116, MCF-7, PC3, and HeLa cell lines. Briefly: In vitro antitumor MTT assay, panel of five human cancer cell lines (text summaries). It is filed as cell-based. As to conditions: range over (all or some of) HePG2, HCT-116, MCF-7, PC3, HeLa, read-out: IC50, antitumor activity, range over the tested cancer cell lines. As for the experimental part:
(§1) The antitumor activity was performed by using the tetrazolium salt 3-(4,5-dimethyl-2-thiazolyl)-2,5-diphenyl-2H-tetrazolium bromide (MTT) assay in accordance with an established method.
(§2) Compounds 3a–c, 4a,b, 5a,b, 6a,b, 7a–e, 8, 9a–c, 10, 11, 12a–c, 13, and 14 were screened for their in vitro antitumor activity by using the standard 3-(4,5-dimethylthiazol-2-yl)-2,5-diphenyltetrazolium bromide (MTT) assay against five human cancers: HePG2, HCT-116, MCF-7, PC3, and HeLa cell lines. […].
In general terms: Formazan colour is commonly taken as a measure of viable cells.

A further series concerns the target T1, COX-2 (Ovis aries, UniProt P79208).
T1 construct: purchased Cayman Chemical 560101
T1 sequence (P79208 17-603): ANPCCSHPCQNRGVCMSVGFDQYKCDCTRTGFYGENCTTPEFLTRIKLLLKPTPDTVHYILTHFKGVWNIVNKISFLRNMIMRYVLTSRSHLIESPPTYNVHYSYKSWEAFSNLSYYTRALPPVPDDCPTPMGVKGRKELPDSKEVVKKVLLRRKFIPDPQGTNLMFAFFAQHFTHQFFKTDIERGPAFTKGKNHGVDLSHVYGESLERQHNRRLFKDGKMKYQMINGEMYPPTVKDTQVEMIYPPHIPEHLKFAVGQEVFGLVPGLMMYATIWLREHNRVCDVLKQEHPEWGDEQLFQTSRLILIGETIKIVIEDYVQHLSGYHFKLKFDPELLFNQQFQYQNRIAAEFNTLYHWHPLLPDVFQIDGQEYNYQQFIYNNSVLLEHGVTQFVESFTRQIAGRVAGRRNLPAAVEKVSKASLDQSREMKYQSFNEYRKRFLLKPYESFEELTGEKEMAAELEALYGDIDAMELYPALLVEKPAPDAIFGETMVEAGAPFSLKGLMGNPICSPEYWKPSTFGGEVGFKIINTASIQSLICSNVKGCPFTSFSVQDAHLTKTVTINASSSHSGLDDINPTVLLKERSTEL
The experiment in a line: Colorimetric COX-2 inhibition assay (Cayman kit 560101). It is filed as biochemical. The following applies: means of three determinations.

The test system of a further series is HCT-116 cell line. The experiment in a line: In vitro antitumor MTT assay, HCT-116. Format: cell-based. As to conditions: Homo sapiens, HCT-116; read-out: IC50 (µM) HCT-116.
The next series relates to MCF-7 cell line. The experiment in a line: In vitro antitumor MTT assay, MCF-7. The following applies: Homo sapiens, MCF7; read-out: IC50 (µM) MCF-7. It is filed as cell-based.
The test system of a further series is TNF-α. The experiment in a line: TNF-α inhibition assay (human-specific sandwich ELISA). It is filed as biochemical. As to conditions: read-out: IC50 (µM) TNFα inhibition. As for the experimental part:
The concentration of TNF-α was measured by human-specific sandwich enzyme-linked immunosorbent assay (ELISA) in accordance with the manufacturer’s instructions (no. 589201, Cayman Chemical, Ann Arbour, MI)[43]^,[44].
TNF-α has been reported as a target for cancer treatment; presently, TNF antagonists are under clinical investigation in phase I and II trials as single agents for cancer therapy. […].

The target in another series is PDE4B (Homo sapiens, UniProt Q07343). The experiment in a line: PDE4B inhibition assay. Format: biochemical. As to conditions: read-out: IC50 (µM) PDE-4B inhibition.
The subject of a further series is PC3 cell line. The experiment in a line: In vitro antitumor MTT assay, PC3. It is filed as cell-based. As to conditions: Homo sapiens, PC-3; read-out: IC50 (µM) PC3.
The subject of a further series is HePG2 cell line. The experiment in a line: In vitro antitumor MTT assay, HePG2. Format: cell-based. As to conditions: Homo sapiens, HepG2; read-out: IC50 (µM) HePG2. On the procedure: as §1, §2
Another series concerns HeLa cell line. The experiment in a line: In vitro antitumor MTT assay, HeLa. Format: cell-based. As to conditions: Homo sapiens; read-out: IC50 (µM) HeLa. On the procedure: as §1, §2

Broadly, the IC50 is the concentration needed to halve the response being measured. The melting point is the temperature, or range, at which the solid turns liquid.

Like-named read-outs stand apart in the source and are kept apart here.

Chain of PDE4B (Q07343 whole entry): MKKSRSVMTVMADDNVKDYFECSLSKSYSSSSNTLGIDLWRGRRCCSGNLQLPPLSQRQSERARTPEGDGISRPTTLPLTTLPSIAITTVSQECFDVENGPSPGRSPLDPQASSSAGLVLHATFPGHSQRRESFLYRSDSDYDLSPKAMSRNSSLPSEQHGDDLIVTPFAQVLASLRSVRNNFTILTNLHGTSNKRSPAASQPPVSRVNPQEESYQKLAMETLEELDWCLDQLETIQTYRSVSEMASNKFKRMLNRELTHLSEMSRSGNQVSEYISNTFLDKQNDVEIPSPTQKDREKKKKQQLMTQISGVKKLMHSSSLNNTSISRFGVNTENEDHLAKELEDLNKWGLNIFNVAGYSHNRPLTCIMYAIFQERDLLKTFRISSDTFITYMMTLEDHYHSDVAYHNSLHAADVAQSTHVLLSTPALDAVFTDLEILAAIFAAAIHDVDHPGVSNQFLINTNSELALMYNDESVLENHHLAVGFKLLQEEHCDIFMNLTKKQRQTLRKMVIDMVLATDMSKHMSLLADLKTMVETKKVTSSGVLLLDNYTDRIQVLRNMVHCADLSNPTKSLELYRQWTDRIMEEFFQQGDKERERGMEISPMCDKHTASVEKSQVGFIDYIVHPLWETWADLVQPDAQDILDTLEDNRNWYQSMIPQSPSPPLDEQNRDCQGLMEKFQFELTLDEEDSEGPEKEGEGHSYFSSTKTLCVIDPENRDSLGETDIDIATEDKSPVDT
Experimental for HCT-116 cell line: (§3) The antitumor activity was performed by using the tetrazolium salt 3-(4,5-dimethyl-2-thiazolyl)-2,5-diphenyl-2H-tetrazolium bromide (MTT) assay in accordance with an established method[39].
Experimental for MCF-7 cell line: as §3
Experimental for PC3 cell line: as §3

As for `COc1ccc(C=C2CN(C)CCC2=O)cc1OC1CCCC1` [Compound 4a, 3-(3-(Cyclopentyloxy)-4-methoxybenzylidene)-1-methylpiperidin-4-one], the melting point lay within 253 to 255 °C. In addition, the IC50 in series [1] (Homo sapiens) was in the range of 4.38 to 22.9 µM. Also, in [1], the 50% inhibitory concentration (IC50) fell in the range of 4.38 to 9.18 µM. The compound also came in with an IC50 against COX-2 of 3.34 µM. In the series on HCT-116 cell line, the IC50 was determined as 4.38 ± 0.4 µM. In the series with MCF-7 cell line, the half-inhibitory concentration (IC50) was 5.13 ± 0.3 µM. Further, the IC50 in the series on TNF-α was found to be 2.01 µM. Further, at PDE4B, the concentration for half-maximal inhibition (IC50) turned out to be 5.62 µM. For the same compound, in the series with PC3 cell line, the IC50 is 9.18 ± 0.8 µM. In addition, the half-maximal inhibitory concentration (IC50) in the series with HePG2 cell line amounted to 6.04 ± 0.5 µM. Besides, the half-maximal inhibitory concentration (IC50) with HeLa cell line amounted to 7.24 ± 0.7 µM.
`CCN1CCC(=O)C(=Cc2ccc(OC)c(OC3CCCC3)c2)C1` [Compound 4b, 3-(3-(Cyclopentyloxy)-4-methoxybenzylidene)-1-ethylpiperidin-4-one] showed a melting point of 249 to 251 °C. Besides, the half-maximal inhibitory concentration (IC50) in [1] (Homo sapiens) is 4.38 to 22.9 µM. Also, the IC50 in series [1] is 7.18 to 14.3 µM. At COX-2, the 50% inhibitory concentration (IC50) turned out to be 1.08 µM. Also, the IC50 with HCT-116 cell line was 9.48 ± 0.8 µM. In addition, the IC50 with MCF-7 cell line turned out to be 7.18 ± 0.8 µM. Moreover, the IC50 in the series with TNF-α was 17.7 µM. On PDE4B, the IC50 came out at 11.6 µM. The half-inhibitory concentration (IC50) with PC3 cell line is 14.3 ± 1.2 µM. Also, in the series on HePG2 cell line, the IC50 stood at 11 ± 1.1 µM. Besides, the IC50 in the series on HeLa cell line is 8.56 ± 0.9 µM.
`COc1ccc(-c2nc3c4ccccc4c4ccccc4c3n2-c2ccccc2)cc1OC1CCCC1` [Compound 7b, 2-(3-(Cyclopentyloxy)-4-methoxyphenyl)-1-phenyl-1H-phenanthro[9,10-d]imidazole] yielded a melting point of 295 to 297 °C. For the same compound, the 50% inhibitory concentration (IC50) in series [1] was 11.8 to 22.9 µM. Further, on COX-2, half-maximal inhibition (IC50) was put at 24 µM. The IC50 with HCT-116 cell line is 19.7 ± 1.4 µM. Further, the IC50 in the series on MCF-7 cell line came to 11.8 ± 1.3 µM. For the same compound, the 50% inhibitory concentration (IC50) in the series with TNF-α was 13.9 µM. Also, the 50% inhibitory concentration (IC50) at PDE4B worked out at 5.65 µM. In addition, the IC50 with PC3 cell line came out at 22.9 ± 1.9 µM. For the same compound, the IC50 in the series on HePG2 cell line turned out to be 13.7 ± 1.2 µM. Besides, the IC50 in the series with HeLa cell line worked out at 17.2 ± 1.5 µM.
In the case of `COc1ccc(-c2[nH]c(=S)[nH]c(=O)c2C#N)cc1OC1CCCC1` [Compound 13, 6-(3-(cyclopentyloxy)-4-methoxyphenyl)-4-oxo-2-thioxo-1,2,3,4-tetrahydropyrimidine-5-carbonitrile], the IC50 is 5.86 to 20.1 µM in [1] (Homo sapiens); 1.88 µM on COX-2; 7.66 ± 0.6 µM in the series on HCT-116 cell line; 6.93 ± 0.5 µM in the series on MCF-7 cell line; 6.72 µM in the series with TNF-α; 3.98 µM on PDE4B. Besides, the 50% inhibitory concentration (IC50) with PC3 cell line came out at 11.5 ± 1.1 µM; with HePG2 cell line, 8.71 ± 0.7 µM; in the series with HeLa cell line, 5.86 ± 0.6 µM.
